Experimental findings from US20120088668A1, “THINNING AGENT” (TAMINCO, NAAMLOZE VENNOOTSCHAP, priority 2009, published 2012) are described below.

Assay [1] deals with Chrysanthemum cv Herby Mixed. Description: Flower bud thinning, Chrysanthemum cv Herby Mixed: auxin/auxin precursor with or without acetaminophen. Type of assay: in vivo. As to conditions: for Mean Number of Buds/plant: auxins/precursors each at 10^−2 Molar solutions, AC at 3 g per hectare equivalent, applied 2 Dec. 2009 (first bud), measured 12 Jan. 2010 (flowering); for % Improvement over control ie (C) minus (A) or (B)/(C × 100): reduction of buds/plant against Control (C). The procedure:
Cultural Details: plants were sown in a commercial seed compost and then “pricked out” into a professional grade all-purpose compost in 9 cm pots set out in a randomized block design. Normal daylight plus supplementary lighting to provide a minimum of 10 hours per day. Heating was given to a minimum of 60 degrees Fahrenheit during the day and 40 degrees F. at night.
Sowing Date: 5 Oct. […] Application Date: 2 Dec. […] Measurement Date: 12 Jan. […] Measurement: Number of buds per plant.
A number of auxins or auxin precursors were applied, each at 10^−2 Molar solutions. Addition of acetaminophen (AC) was at 3 g per hectare equivalent in each test.

Assay [2] relates to Chrysanthemum cv Herby Mixed. In words: Flower bud thinning, Chrysanthemum cv Herby Mixed: agrochemically acceptable additives with AN or AN + AC. Type of assay: in vivo. As to conditions: for Mean Number of Buds/plant: AN 1 g, AC 3 g actives per hectare in 250 litres water, additive per ha: Glucose 150 g, Succinic acid 50 g, Ascorbic acid 50 g, Corn oil 500 g, L-arginine 30 g, applied 4 Feb. 2010 (first bud), measured 12 Mar. 2010. As for the experimental part: Cultural Details: plants were sown in a commercial seed compost and then “pricked out” into a professional grade all-purpose compost in 9 cm pots set out in a randomized block design. Normal daylight plus supplementary lighting to provide a minimum of 10 hours per day. Heating was given to a minimum of 60 degrees Fahrenheit during the day and 40 degrees at night. Certain agrochemically acceptable additives, as examples (rates per ha provided in the Table below), were added to either anthranilic acid ([…], applied in 250 litres water per hectare, […]) or anthranilic acid plus acetaminophen (1 gram per litre and 3 gram per litre solution respectively, applied in 250 litres water per hectare, =1 g and 3 g actives total respectively per hectare).
Sowing Date: 26 Oct. 2009, in plugs. Application Date: 4 Feb. 2010 (first bud). Measurement Date: 12 Mar. 2010 (flowering). Measurement: Number of buds per plant.

`Nc1c(O)cccc1C(=O)O` [3-Hydroxyanthranilic acid]: in assay [1], the “Mean Number of Buds/plant” value is 2.5 and the “% Improvement over control ie (C) minus (A) or (B)/(C × 100)” value (from here on “% Improvement over control ie (C) minus”) is recorded as “+7.4%”.

In the case of `CC(=O)Nc1ccc(O)cc1` [AC, N-(4-hydroxypheyl)acetamide, reference compound], the “Mean Number of Buds/plant” value in assay [2] is on record as 2.8; in assay [1], 2.7.

As to `CC(N)=O` [Acetamide], in assay [1], the “Mean Number of Buds/plant” value is 2.3 and the “% Improvement over control ie (C) minus” value is on record as “+14.8%”.

Take `Nc1ccccc1C(=O)[O-].[Na+]` [Anthranilic Acid monosodium salt]: in assay [1], the “Mean Number of Buds/plant” value was 2.3 and the “% Improvement over control ie (C) minus” value was “+14.8%”.

Consider `COC(=O)c1ccccc1N` [Anthranilic acid methyl ester], for which, in assay [1], the “Mean Number of Buds/plant” value is 2.2 and the “% Improvement over control ie (C) minus” value is listed as “+18.5%”.

Consider `Nc1ccccc1C(=O)O` [Anthranilic acid, anthranilic acid], for which, in assay [2], the “Mean Number of Buds/plant” value was determined as 2.3. Besides, the “% Improvement over untreated” value in assay [2] (reduction of buds/plant against Untreated) was “+17.8%”. Besides, in assay [1], the “Mean Number of Buds/plant” value is 2.2 and the “% Improvement over control ie (C) minus” value is on record as “+18.5%”.

As for `NC(=O)Cc1c[nH]c2ccccc12` [Indole-3-acetamide], in assay [1], the “Mean Number of Buds/plant” value amounted to 2.3 and the “% Improvement over control ie (C) minus” value was “+14.8%”.

For the compound `N[C@@H](Cc1c[nH]c2ccccc12)C(=O)O` [L-Tryptophan], in assay [1], the “Mean Number of Buds/plant” value was determined as 2.4 and the “% Improvement over control ie (C) minus” value was “+11.1%”.

For the compound `NCCc1c[nH]c2ccccc12` [Tryptamine], in assay [1], the “Mean Number of Buds/plant” value stood at 2.7 and the “% Improvement over control ie (C) minus” value is listed as “+0.0%”.
